According to the supplement of paper PMC10307832:

Assays:
Test in all cases: relative viability (nuclei count vs DMSO), 5 days (fraction); higher = more cells survive
Linsitinib + Pictilisib = compound: C[C@]1(O)C[C@@H](c2nc(-c3ccc4ccc(-c5ccccc5)nc4c3)c3c(N)nccn32)C1 [Linsitinib] + CS(=O)(=O)N1CCN(Cc2cc3nc(-c4cccc5[nH]ncc45)nc(N4CCOCC4)c3s2)CC1 [Pictilisib] (partner 1 µM)
How it was run: (§1)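 Lung cancer cell lines in 1536-well plates got either a single drug or a fixed anchor-drug dose together with five library-drug doses (not always all listed) in √10 steps, by pin tool, on the day after seeding. Nuclei were counted after 5 days, and relative viability is the treated-to-vehicle ratio of nuclei counts. Values are medians of duplicate plates.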

Linsitinib + Crizotinib = compound: C[C@]1(O)C[C@@H](c2nc(-c3ccc4ccc(-c5ccccc5)nc4c3)c3c(N)nccn32)C1 [Linsitinib] + C[C@@H](Oc1cc(-c2cnn(C3CCNCC3)c2)cnc1N)c1c(Cl)ccc(F)c1Cl [Crizotinib] (partner 1 µM)
How it was run: as §1

Ispinesib + Crizotinib = compound: Cc1ccc(C(=O)N(CCCN)[C@@H](c2nc3cc(Cl)ccc3c(=O)n2Cc2ccccc2)C(C)C)cc1 [Ispinesib] + C[C@@H](Oc1cc(-c2cnn(C3CCNCC3)c2)cnc1N)c1c(Cl)ccc(F)c1Cl [Crizotinib] (partner 1 µM)
How it was run: as §1

Ispinesib + Pemetrexed = compound: Cc1ccc(C(=O)N(CCCN)[C@@H](c2nc3cc(Cl)ccc3c(=O)n2Cc2ccccc2)C(C)C)cc1 [Ispinesib] + Nc1nc2[nH]cc(CCc3ccc(C(=O)N[C@@H](CCC(=O)O)C(=O)O)cc3)c2c(=O)[nH]1 [Pemetrexed] (partner 0.2 µM)
How it was run: as §1

Row | Cell Line | relative viability (Linsitinib + Pictilisib; first compound 0.01 µM) | relative viability (Linsitinib + Pictilisib; first compound 0.03162 µM) | relative viability (Linsitinib + Pictilisib; first compound 0.1 µM) | relative viability (Linsitinib + Pictilisib; first compound 0.3162 µM) | relative viability (Linsitinib + Pictilisib; first compound 1 µM) | relative viability (Linsitinib + Crizotinib; first compound 0.01 µM) | relative viability (Linsitinib + Crizotinib; first compound 0.03162 µM) | relative viability (Linsitinib + Crizotinib; first compound 0.1 µM) | relative viability (Linsitinib + Crizotinib; first compound 0.3162 µM) | relative viability (Linsitinib + Crizotinib; first compound 1 µM) | relative viability (Ispinesib + Crizotinib; first compound 0.001 µM) | relative viability (Ispinesib + Crizotinib; first compound 0.003162 µM) | relative viability (Ispinesib + Crizotinib; first compound 0.01 µM) | relative viability (Ispinesib + Crizotinib; first compound 0.03162 µM) | relative viability (Ispinesib + Crizotinib; first compound 0.1 µM) | relative viability (Ispinesib + Pemetrexed; first compound 0.001 µM) | relative viability (Ispinesib + Pemetrexed; first compound 0.003162 µM) | relative viability (Ispinesib + Pemetrexed; first compound 0.01 µM) | relative viability (Ispinesib + Pemetrexed; first compound 0.03162 µM) | relative viability (Ispinesib + Pemetrexed; first compound 0.1 µM)
1 | H3255 | 0.571 | 0.52 | 0.566 | 0.468 | 0.45 | 0.84 | 0.817 | 0.95 | 0.773 | 0.813 | 1.09 | 0.821 | 0.92 | 0.58 | 0.327 | 0.575 | 0.604 | 0.515 | 0.525 | 0.39
2 | NCI-H23 | 0.445 | 0.412 | 0.521 | 0.184 | 0.395 | 0.416 | 0.445 | 0.591 | 0.351 | 0.451 | 0.475 | 0.46 | 0.595 | 0.499 | 0.283 | 0.68 | 0.785 | 0.726 | 0.522 | 0.207
3 | NCI-H1944 | 0.33 | 0.354 | 0.344 | 0.349 | 0.299 | 1.05 | 1.21 | 1.17 | 0.926 | 0.892 | 1.2 | 1.16 | 1.18 | 0.697 | 0.573 | 0.682 | 0.61 | 0.588 | 0.389 | 0.218
4 | NCI-H1651 | 0.505 | 0.569 | 0.475 | 0.377 | 0.508 | 0.874 | 0.93 | 0.803 | 0.735 | 0.862 | 0.855 | 0.936 | 0.99 | 0.959 | 0.735 | 0.616 | 0.783 | 0.57 | 0.63 | 0.418
5 | EBC-1 | 0.499 | 0.347 | 0.381 | 0.299 | 0.246 | 0.168 | 0.173 | 0.212 | 0.197 | 0.193 | 0.189 | 0.194 | 0.194 | 0.167 | 0.152 | – | – | – | – | –
6 | COR-L 105 | 0.454 | 0.434 | 0.387 | 0.301 | 0.25 | 0.938 | 0.7 | 0.845 | 0.631 | 0.471 | 0.721 | 0.759 | 0.47 | 0.263 | 0.411 | 1.09 | 1.11 | 1.24 | 0.794 | 0.5
7 | RERF-LC-KJ | 0.593 | 0.55 | 0.538 | 0.44 | 0.429 | 0.803 | 0.816 | 0.849 | 0.731 | 0.739 | 0.884 | 0.83 | 0.982 | 0.587 | 0.301 | 0.43 | 0.516 | 0.443 | 0.309 | 0.202
8 | NCI-H1793 | 0.309 | 0.311 | 0.238 | 0.235 | 0.29 | – | – | – | – | – | – | – | – | – | – | 1.09 | 0.943 | 1.12 | 0.775 | 0.232
9 | CAL-12T | 0.44 | 0.368 | 0.585 | 0.379 | 0.336 | 0.641 | 0.596 | 0.625 | 0.556 | 0.467 | 0.688 | 0.731 | 0.394 | 0.229 | 0.282 | 1.31 | 1.24 | 1.41 | 1.12 | 0.235
10 | NCI-H1993 | 0.831 | 0.832 | 0.843 | 0.643 | 0.896 | 0.867 | 0.852 | 0.866 | 0.969 | 0.636 | 0.837 | 0.914 | 0.874 | 0.891 | 0.661 | 0.652 | 0.677 | 0.637 | 0.587 | 0.404
11 | A549 | 0.514 | 0.442 | 0.344 | 0.242 | 0.273 | 0.685 | 0.771 | 0.684 | 0.623 | 0.473 | 0.88 | 0.903 | 0.849 | 0.0553 | 0.181 | – | – | – | – | –
12 | NCI-H1648 | – | – | – | – | – | – | – | – | – | – | – | – | – | – | – | 0.92 | 0.723 | 0.802 | 0.751 | 0.305
13 | SW 900 | – | – | – | – | – | – | – | – | – | – | – | – | – | – | – | 0.482 | 0.516 | 0.525 | 0.469 | 0.189
14 | ABC-1 | 0.883 | 0.572 | 0.696 | 0.434 | 0.498 | 1.26 | 1.01 | 1.01 | 0.614 | 0.905 | 1.1 | 1.15 | 0.908 | 0.248 | 0.334 | – | – | – | – | –
15 | NCI-H727 | 0.414 | 0.353 | 0.342 | 0.281 | 0.17 | 0.839 | 0.905 | 0.743 | 0.727 | 0.601 | – | 0.943 | 1.02 | 0.632 | 0.408 | – | – | – | – | –
16 | NCI-H2342 | – | – | – | – | – | – | – | – | – | – | – | – | – | – | – | 0.772 | 0.813 | 0.924 | 0.751 | 0.468
17 | NCI-H1299 | 0.864 | 0.794 | 0.766 | 0.796 | 0.648 | 0.96 | 0.975 | 1 | 0.949 | 0.931 | 1.01 | 0.977 | 1.02 | 0.805 | 0.469 | – | – | – | – | –
18 | Calu-6 | 0.878 | 0.805 | 0.916 | 0.748 | 0.716 | 0.79 | 0.701 | 0.837 | 0.717 | 0.708 | 0.992 | 0.618 | 0.527 | 0.169 | 0.265 | – | – | – | – | –
